Test results reported in ChEMBL document CHEMBL1151517, “Morpholinoalkylindenes as antinociceptive agents: Novel cannabinoid receptor agonists” (Bioorg Med Chem Lett, 1995).

Experiments:
Cannabinoid receptor = Cannabinoid receptor (Rattus norvegicus, UniProt Q9QZN9+P20272); experiment: Displacement of 0.5 nM [3H](R)-(+)-WIN-55212-2 from Cannabinoid receptor of rat cerebellar membranes; type: cell membranes, Membrane
Mus musculus [1] = experiment: Concentration required for inhibition of electrically stimulated contraction of mouse vas deferens […]; type: functional
Mus musculus [2] = experiment: Effective dose required for inhibition of oral acetylcholine (ACh) writhing activity in mice at 100 mg/Kg dose; type: functional
[3] = Compound was tested for inhibitory activity against prostaglandin synthetase in mouse brain microsomes
Mus musculus [4] = species on record: Mus musculus; experiment: Effective dose required for inhibition of oral acetylcholine (ACh) writhing activity in mice; type: functional
Mus musculus [5] = experiment: Effective dose required for inhibition of oral acetylcholine (ACh) writhing activity in mice at 10 mg/Kg dose; type: functional
[6] = molecular target: Cannabinoid receptor (Rattus norvegicus) (UniProt Q9QZN9+P20272); experiment: Inhibition to displace 50% of 0.5 nM [3H](R)-(+)-WIN-55212-2 binding to Cannabinoid receptor in rat cerebellar membranes at 1 uM concentration; type: cell membranes; settings: Membrane
Sequence of Cannabinoid receptor (Rattus norvegicus) (P20272 whole entry, looked up): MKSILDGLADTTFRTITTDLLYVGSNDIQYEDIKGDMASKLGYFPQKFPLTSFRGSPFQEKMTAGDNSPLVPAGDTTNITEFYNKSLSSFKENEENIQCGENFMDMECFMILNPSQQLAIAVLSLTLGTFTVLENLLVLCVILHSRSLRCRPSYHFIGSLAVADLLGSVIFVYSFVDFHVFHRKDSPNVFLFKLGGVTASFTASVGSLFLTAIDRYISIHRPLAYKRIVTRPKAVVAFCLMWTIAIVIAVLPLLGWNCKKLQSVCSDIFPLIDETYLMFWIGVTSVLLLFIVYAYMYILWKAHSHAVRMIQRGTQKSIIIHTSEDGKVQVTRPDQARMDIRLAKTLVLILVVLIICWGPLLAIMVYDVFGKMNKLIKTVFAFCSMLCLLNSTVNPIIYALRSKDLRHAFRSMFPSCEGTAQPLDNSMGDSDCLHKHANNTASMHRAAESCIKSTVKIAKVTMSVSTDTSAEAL
Sequence of Cannabinoid receptor (Rattus norvegicus) (Q9QZN9 whole entry, looked up): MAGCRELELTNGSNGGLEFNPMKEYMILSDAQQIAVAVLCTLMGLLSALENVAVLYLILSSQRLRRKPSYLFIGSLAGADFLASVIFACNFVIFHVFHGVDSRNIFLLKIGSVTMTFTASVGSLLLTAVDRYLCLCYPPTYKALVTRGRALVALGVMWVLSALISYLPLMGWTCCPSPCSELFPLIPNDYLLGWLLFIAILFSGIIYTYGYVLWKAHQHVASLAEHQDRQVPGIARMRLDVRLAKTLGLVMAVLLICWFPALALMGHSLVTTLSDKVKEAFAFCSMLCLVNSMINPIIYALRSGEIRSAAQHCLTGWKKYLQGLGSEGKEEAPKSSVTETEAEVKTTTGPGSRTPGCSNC

| SMILES | IC50 (Cannabinoid receptor) [µM] | IC50 (Mus musculus [1]) [µM] | also measured |
| --- | --- | --- | --- |
| COc1ccc(/C=C2\C=C(CCN3CCOCC3)c3ccccc32)cc1 | 0.058 | 0.08 | – |
| Oc1ccc(/C=C2\C=C(CCN3CCOCC3)c3ccccc32)c2ccccc12 | 97 | – | – |
| COc1ccc(C=C2C(C)=C(CCN3CCOCC3)c3ccccc32)cc1 | 45 | – | inhibition in vivo at 100 mg/kg (Mus musculus [2]): 30% |
| COc1ccc(/C=C2\C=C(CCN3CCOCC3)c3ccccc32)cc1OC | 28 | 0.019 | – |
| COc1ccc(/C=C2\C=C(CCN3CCOCC3)c3ccccc32)c2ccccc12 | 0.9 | 0.008 | – |
| CC1=C(CCN2CCOCC2)c2ccccc2C1=Cc1cccc2ccccc12 | 10 | 0.045 | – |
| C[S+]([O-])c1ccc(/C=C2\C=C(CCN3CCOCC3)c3ccccc32)cc1 (centres undefined) | – | 0.19 | – |
| COc1ccc(C(=O)c2c(C)n(CCN3CCOCC3)c3ccccc23)cc1 [PRAVADOLINE] | – | 0.53 | IC50 [3]: 3.5 µM; ED50 (Mus musculus [4]): 41 mg/kg |
| C1=C(CCN2CCOCC2)c2ccccc2/C1=C/c1cccc2ccccc12 | 1 | 0.007 | inhibition in vivo at 10 mg/kg (Mus musculus [5]): 83% |
| CSc1ccc(/C=C2\C=C(CCN3CCOCC3)c3ccccc32)cc1 | 96 | – | ED50 (Mus musculus [4]): 50 mg/kg |
| COc1ccc(C=C2C(C)=C(CCN3CCOCC3)c3ccccc32)c2ccccc12 | – | 0.35 | inhibition in vivo at 100 mg/kg (Mus musculus [2]): 39% |
| C1=C(CCN2CCOCC2)c2ccccc2/C1=C/c1ccccc1 | – | 0.079 | inhibition [6]: 33% |
